Test results reported in US20260015350A1, “AZAQUINAZOLINE PAN-KRAS INHIBITORS” (Mirati Therapeutics, Inc., priority 2022, published 2026).

Tests used:
[1] = test system: KRas-mediated phosphorylation of ERK in HCT116 cells; experiment: Inhibition of KRas-mediated phosphorylation of ERK (Cisbio HTRF pERK), HCT116 cells; assay type: cell-based; settings: Homo sapiens; for inhibition at 0.1 µM: HCT-116, 3 h, single point, 100 nM compound, 3 hrs; for IC50: HCT-116, HTRF pERK
Summary of the method: (§1)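 HTRF readout of phospho-ERK in cell lysates after 3 hrs of compound exposure. Dosing: 10 uM top, 3-fold steps, 10 doses, final DMSO 0.8%. Min control: 0.2 uM Trametinib. Lysis ran 40 mins at 4° C, and antibody detection 2 hrs at room temperature.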

[2] = target: T1, KRas^G12A (Homo sapiens, UniProt P01116, G12A); experiment: KRas binding assay (TR-FRET tracer displacement), KRas G12A; settings: for inhibition at 0.01 µM: single point, 10 nM compound, TR-FRET; for IC50: TR-FRET tracer displacement, KRas G12A
T1 construct: Biotinylated KRas (corresponding to amino acids 1-169, produced at Accelegan Inc.); biotin (biotinylated); purchased Accelegan Inc
T1 sequence (P01116 1-169 isoform P01116-2 G12A): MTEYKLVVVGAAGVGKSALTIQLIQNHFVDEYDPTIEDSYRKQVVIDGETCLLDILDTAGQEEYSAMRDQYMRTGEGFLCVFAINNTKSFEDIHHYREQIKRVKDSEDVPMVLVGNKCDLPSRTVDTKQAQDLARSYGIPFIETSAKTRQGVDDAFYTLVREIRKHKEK

[3] = test system: KRas-mediated phosphorylation of ERK in AsPC-1 cells; experiment: Inhibition of KRas-mediated phosphorylation of ERK (Cisbio HTRF pERK), AsPC-1 cells; assay type: cell-based; settings: Homo sapiens, ASPC1, AsPC-1 cells; HTRF pERK
Summary of the method: (§2)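 Signal read by HTRF (d2/Cryptate antibody pair, 2 hr room-temperature incubation on lysate). Cells: 6,000 per well, 3 hr compound exposure. Titration: 10 uM highest, 3-fold, 10 points.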

[4] = target: T2, KRas^G12C (Homo sapiens, UniProt P01116, G12C); experiment: KRas binding assay (TR-FRET tracer displacement), KRas G12C; settings: for inhibition at 0.01 µM: single point, 10 nM compound, TR-FRET; for IC50: TR-FRET tracer displacement, KRas G12C
T2 construct: Biotinylated KRas (corresponding to amino acids 1-169, produced at Accelegan Inc.); biotin (biotinylated); purchased Accelegan Inc
T2 sequence (P01116 1-169 isoform P01116-2 G12C): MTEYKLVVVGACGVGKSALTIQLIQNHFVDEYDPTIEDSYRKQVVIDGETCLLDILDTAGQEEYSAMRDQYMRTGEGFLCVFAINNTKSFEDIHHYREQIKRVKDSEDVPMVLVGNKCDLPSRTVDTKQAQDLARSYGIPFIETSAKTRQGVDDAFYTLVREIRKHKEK

[5] = test system: KRas-mediated phosphorylation of ERK in H358 cells; experiment: Inhibition of KRas-mediated phosphorylation of ERK (Cisbio HTRF pERK), H358 cells; assay type: cell-based; settings: Homo sapiens; for inhibition at 0.1 µM: NCI-H358, 3 h, single point, 100 nM compound, 3 hrs; for IC50: NCI-H358, HTRF pERK
Summary of the method: as §2

[6] = test system: KRas-mediated phosphorylation of ERK in H460 cells; experiment: Inhibition of KRas-mediated phosphorylation of ERK (Cisbio HTRF pERK), H460 cells; assay type: cell-based; settings: Homo sapiens; for inhibition at 0.1 µM: NCI-H460, 3 h, single point, 100 nM compound, 3 hrs; for IC50: NCI-H460, HTRF pERK
Summary of the method: as §2

[7] = target: T3, KRas^G12D (Homo sapiens, UniProt P01116, G12D); experiment: KRas binding assay (TR-FRET tracer displacement), KRas G12D
T3 construct: Biotinylated KRas (corresponding to amino acids 1-169, produced at Accelegan Inc.); biotin (biotinylated); purchased Accelegan Inc
T3 sequence (P01116 1-169 isoform P01116-2 G12D): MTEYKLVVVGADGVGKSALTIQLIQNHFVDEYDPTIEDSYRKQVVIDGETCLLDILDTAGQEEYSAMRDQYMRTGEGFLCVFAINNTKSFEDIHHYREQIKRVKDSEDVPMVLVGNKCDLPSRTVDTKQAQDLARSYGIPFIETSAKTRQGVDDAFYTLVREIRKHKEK

[8] = test system: KRas-mediated phosphorylation of ERK in H727 cells; experiment: Inhibition of KRas-mediated phosphorylation of ERK (Cisbio HTRF pERK), H727 cells; assay type: cell-based; settings: Homo sapiens, NCI-H727, H727 cells; HTRF pERK
Summary of the method: as §2

[9] = target: T4, KRas^G13D (Homo sapiens, UniProt P01116, G13D); experiment: KRas binding assay (TR-FRET tracer displacement), KRas G13D; settings: for inhibition at 0.01 µM: single point, 10 nM compound, TR-FRET; for IC50: TR-FRET tracer displacement, KRas G13D
T4 construct: Biotinylated KRas (corresponding to amino acids 1-169, produced at Accelegan Inc.); biotin (biotinylated); purchased Accelegan Inc
T4 sequence (P01116 1-169 isoform P01116-2 G13D): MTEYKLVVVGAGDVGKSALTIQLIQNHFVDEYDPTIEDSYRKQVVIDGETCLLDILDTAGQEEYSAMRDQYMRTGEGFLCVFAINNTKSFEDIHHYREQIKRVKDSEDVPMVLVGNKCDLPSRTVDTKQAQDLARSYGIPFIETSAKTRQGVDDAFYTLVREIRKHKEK

[10] = target: T5, KRas^Q61H (Homo sapiens, UniProt P01116, Q61H); experiment: KRas binding assay (TR-FRET tracer displacement), KRas Q61H; settings: for inhibition at 0.01 µM: single point, 10 nM compound, TR-FRET; for IC50: TR-FRET tracer displacement, KRas Q61H
T5 construct: Biotinylated KRas (corresponding to amino acids 1-169, produced at Accelegan Inc.); biotin (biotinylated); purchased Accelegan Inc
T5 sequence (P01116 1-169 isoform P01116-2 Q61H): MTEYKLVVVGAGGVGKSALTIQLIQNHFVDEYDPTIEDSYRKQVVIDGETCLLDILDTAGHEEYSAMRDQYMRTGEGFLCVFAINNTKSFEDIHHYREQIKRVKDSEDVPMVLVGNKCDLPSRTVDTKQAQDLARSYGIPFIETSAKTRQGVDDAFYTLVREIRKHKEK

[11] = test system: KRas-mediated phosphorylation of ERK in MKN1 cells; experiment: Inhibition of KRas-mediated phosphorylation of ERK (Cisbio HTRF pERK), MKN1 cells; assay type: cell-based; settings: Homo sapiens, MKN-1
Summary of the method: (§3)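 Phospho-ERK is quantified by HTRF with the Advanced pERK kit. Cells go in at 6,000/well in RPMI plus 10% FBS overnight at 37° C. under 5% CO2, with a 4-hour covered room-temperature incubation ahead of the read.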

[12] = target: T6, KRas^G12V (Homo sapiens, UniProt P01116, G12V); experiment: KRas binding assay (TR-FRET tracer displacement), KRas G12V
T6 construct: Biotinylated KRas (corresponding to amino acids 1-169, produced at Accelegan Inc.); biotin (biotinylated); purchased Accelegan Inc
T6 sequence (P01116 1-169 isoform P01116-2 G12V): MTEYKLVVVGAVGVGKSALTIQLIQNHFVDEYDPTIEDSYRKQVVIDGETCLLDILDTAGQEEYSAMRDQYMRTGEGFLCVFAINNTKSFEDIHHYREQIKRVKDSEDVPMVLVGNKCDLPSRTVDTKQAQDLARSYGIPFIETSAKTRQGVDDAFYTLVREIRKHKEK

[13] = target: T7, KRas^G12S (Homo sapiens, UniProt P01116, G12S); experiment: KRas binding assay (TR-FRET tracer displacement), KRas G12S; settings: for inhibition at 0.01 µM: single point, 10 nM compound, TR-FRET; for IC50: TR-FRET tracer displacement, KRas G12S
T7 construct: Biotinylated KRas (corresponding to amino acids 1-169, produced at Accelegan Inc.); biotin (biotinylated); purchased Accelegan Inc
T7 sequence (P01116 1-169 isoform P01116-2 G12S): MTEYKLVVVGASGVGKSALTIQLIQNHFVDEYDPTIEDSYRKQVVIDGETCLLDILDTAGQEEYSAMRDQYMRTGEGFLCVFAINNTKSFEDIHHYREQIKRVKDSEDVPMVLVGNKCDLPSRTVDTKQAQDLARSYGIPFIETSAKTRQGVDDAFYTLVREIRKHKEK

[14] = test system: KRas-mediated phosphorylation of ERK in PSN1 cells; experiment: Inhibition of KRas-mediated phosphorylation of ERK (Cisbio HTRF pERK), PSN1 cells; assay type: cell-based; settings: Homo sapiens
Summary of the method: as §3

[15] = test system: KRas-mediated phosphorylation of ERK in A549 cells; experiment: Inhibition of KRas-mediated phosphorylation of ERK (Cisbio HTRF pERK), A549 cells; assay type: cell-based; settings: Homo sapiens; for inhibition at 0.1 µM: A549, 3 h, single point, 100 nM compound, 3 hrs; for IC50: HTRF pERK
Summary of the method: as §1

[16] = target: T8, KRas^WT (Homo sapiens, UniProt P01116); experiment: KRas binding assay (TR-FRET tracer displacement), KRas WT; settings: for inhibition at 0.01 µM: single point, 10 nM compound, TR-FRET; for IC50: TR-FRET tracer displacement, KRas WT
T8 construct: Biotinylated KRas (corresponding to amino acids 1-169, produced at Accelegan Inc.); biotin (biotinylated); purchased Accelegan Inc
T8 sequence (P01116 1-169 isoform P01116-2): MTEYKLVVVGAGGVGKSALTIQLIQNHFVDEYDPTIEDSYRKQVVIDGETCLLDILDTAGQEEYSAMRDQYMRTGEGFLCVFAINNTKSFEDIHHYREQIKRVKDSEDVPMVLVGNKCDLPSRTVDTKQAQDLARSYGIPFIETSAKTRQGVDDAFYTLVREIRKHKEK

[17] = target: T9, KRas^G12R (Homo sapiens, UniProt P01116, G12R); experiment: KRas binding assay (TR-FRET tracer displacement), KRas G12R
T9 construct: Biotinylated KRas (corresponding to amino acids 1-169, produced at Accelegan Inc.); biotin (biotinylated); purchased Accelegan Inc
T9 sequence (P01116 1-169 isoform P01116-2 G12R): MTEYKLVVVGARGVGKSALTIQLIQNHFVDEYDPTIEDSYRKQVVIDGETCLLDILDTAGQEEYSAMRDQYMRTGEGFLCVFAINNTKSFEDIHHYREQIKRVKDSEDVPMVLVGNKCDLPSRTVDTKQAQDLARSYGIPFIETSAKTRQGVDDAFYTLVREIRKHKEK

Structure (SMILES) | inhibition at 0.1 µM [1] [%] | inhibition at 0.01 µM [2] [%] | IC50 [3] [nM] | inhibition at 0.01 µM [4] [%] | inhibition at 0.1 µM [5] [%] | inhibition at 0.1 µM [6] [%] | IC50 [7] [nM] | IC50 [8] [nM] | inhibition at 0.01 µM [9] [%] | inhibition at 0.01 µM [10] [%] | IC50 [11] [nM] | IC50 [12] [nM] | inhibition at 0.01 µM [13] [%] | IC50 [14] [nM] | inhibition at 0.1 µM [15] [%] | inhibition at 0.01 µM [16] [%] | IC50 [17] [nM] | IC50 [1] [nM] | IC50 [5] [nM] | IC50 [6] [nM] | further results
CCc1c(F)ccc2cc(O)cc(-c3ncc4c(N5CCCCn6nc(C(=O)N(C)C)cc6C5)nc(OC[C@@]56CCCN5C[C@H](F)C6)nc4c3F)c12 [Example 671, 5-(7-(8-ethyl-7-fluoro-3-hydroxynaphthalen-1-yl)-8-fluoro-2-(((2R,7aS)-2-fluorotetrahydro-1H-pyrrolizin-7a(5H)-yl)methoxy)pyrido[4,3-d]pyrimidin-4-yl)-N,N-dimethyl-4,5,6,7,8,9-hexahydropyrazolo[1,5-a][1,4]diazocine-2-carboxamide] | 35 | 97 | 28 | 98 | 98 | 60 | < 2 | 6 | 93 | 94 | 7 | < 2 | 98 | 4110 | 60 | 93 | < 2 |  |  |  | 
C[C@@]1(O)CCCN(c2nc(OCC34CCCN3CCC4)nc3c(F)c(-c4c(C5CC5)c(Cl)cc5[nH]ncc45)ncc23)C1 [Example 876, (3R)-1-(7-(6-chloro-5-cyclopropyl-1H-indazol-4-yl)-8-fluoro-2-((tetrahydro-1H-pyrrolizin-7a(5H)-yl)methoxy)pyrido[4,3-d]pyrimidin-4-yl)-3-methylpiperidin-3-ol] |  |  | 661 |  |  |  | 10 | 1560 |  |  | 112 | 11 |  | > 10000 |  |  | 22 | 1130 | 234 | 561 | IC50 [2]: 14 nM; IC50 [4]: 9 nM; IC50 [9]: 10 nM; IC50 [10]: 18 nM; IC50 [13]: 13 nM; IC50 [15]: 1040 nM; IC50 [16]: 17 nM
O=S1(=O)NCC2(CCCN(c3nc(OC[C@@]45CCCN4C[C@H](F)C5)nc4c(F)c(-c5c6ccccc6cc6[nH]ncc56)ncc34)C2)N1 (stereo partly drawn) [Example 762, 7-(7-(1H-benzo[f]indazol-4-yl)-8-fluoro-2-(((2R,7aS)-2-fluorohexahydro-1H-pyrrolizin-7a-yl)methoxy)pyrido[4,3-d]pyrimidin-4-yl)-2-thia-1,3,7-triazaspiro[4.5]decane 2,2-dioxide] | 36 |  | 704 |  |  | 22 | 2 | 220 |  |  | 139 | < 2 |  | 2550 |  |  | < 2 | 134 | 40 | 327 | IC50 [2]: < 2 nM; IC50 [4]: < 2 nM; IC50 [9]: < 2 nM; IC50 [10]: < 2 nM; IC50 [13]: < 2 nM; IC50 [15]: 234 nM; IC50 [16]: < 2 nM
CCc1c(F)ccc2cc(O)cc(-c3ncc4c(N5CCCCn6nc(C(=O)N7CCOCC7)cc6C5)nc(OC[C@@]56CCCN5C[C@H](F)C6)nc4c3F)c12 [Example 690, (5-(7-(8-ethyl-7-fluoro-3-hydroxynaphthalen-1-yl)-8-fluoro-2-(((2R,7aS)-2-fluorotetrahydro-1H-pyrrolizin-7a(5H)-yl)methoxy)pyrido[4,3-d]pyrimidin-4-yl)-4,5,6,7,8,9-hexahydropyrazolo[1,5-a][1,4]diazocin-2-yl)(morpholino)methanone] | 20 | 93 | 81 | 97 | 79 | 37 | < 2 | 37 | 90 | 92 | 16 | < 2 | 96 | 7620 | 4 | 91 | < 2 |  |  |  | 
CCc1c(F)ccc2cc(O)cc(-c3ncc4c(N5CC6CC(O)C(C6)C5)nc(OC[C@]56CCCN5[C@H](COC(=O)N(C)C)CC6)nc4c3F)c12 (stereo partly drawn) [Example 707, ((3S,7aR)-7a-(((7-(8-ethyl-7-fluoro-3-hydroxynaphthalen-1-yl)-8-fluoro-4-(6-hydroxy-3-azabicyclo[3.2.1]octan-3-yl)pyrido[4,3-d]pyrimidin-2-yl)oxy)methyl)hexahydro-1H-pyrrolizin-3-yl)methyl dimethylcarbamate] | 47 | 76 | 79 | 84 | 88 | 84 | 9 | 24 | 85 | 85 | 2 | 4 | 85 | 4410 | 71 | 76 | < 2 |  |  |  | 
CCc1c(F)ccc2cc(O)cc(-c3ncc4c(N5CCCC6(CCS(=O)(=O)N6)C5)nc(OC[C@@]56CCCN5C[C@H](F)C6)nc4c3F)c12 (stereo partly drawn) [Example 643, 7-(7-(8-ethyl-7-fluoro-3-hydroxynaphthalen-1-yl)-8-fluoro-2-(((2R,7aS)-2-fluorohexahydro-1H-pyrrolizin-7a-yl)methoxy)pyrido[4,3-d]pyrimidin-4-yl)-2-thia-1,7-diazaspiro[4.5]decane 2,2-dioxide] | 87 | 88 | 6 | 99 |  | 100 | < 2 | 21 | 99 | 100 | 4 | < 2 | 98 | 625 |  | 98 | < 2 | 13 | 2 | 5 | IC50 [15]: 16 nM
